From US20240140958A1, “FUSED QUADRACYCLIC COMPOUNDS, COMPOSITIONS AND USES THEREOF” (Tabomedex Biosciences, Inc., priority 2021, published 2024) come the findings set out here.

The experiment deals with T1, MAPKAPK2 Recombinant Human Protein (Homo sapiens, UniProt P49137).
T1 construct: purchased ThermoFisher pv3317
T1 sequence (P49137 whole entry): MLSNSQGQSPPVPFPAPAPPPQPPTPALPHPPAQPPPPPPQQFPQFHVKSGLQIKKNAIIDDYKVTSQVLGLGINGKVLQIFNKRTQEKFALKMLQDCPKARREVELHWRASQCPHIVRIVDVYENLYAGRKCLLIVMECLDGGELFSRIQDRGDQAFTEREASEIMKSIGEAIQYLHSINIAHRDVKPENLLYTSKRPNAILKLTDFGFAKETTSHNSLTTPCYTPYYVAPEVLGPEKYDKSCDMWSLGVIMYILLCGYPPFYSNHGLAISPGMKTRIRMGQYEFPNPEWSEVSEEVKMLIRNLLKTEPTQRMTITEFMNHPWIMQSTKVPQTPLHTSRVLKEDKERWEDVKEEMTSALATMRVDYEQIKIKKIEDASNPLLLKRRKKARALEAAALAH
As to the kind of experiment: MK2 kinase assay (Z'-LYTE kinase assay kit). As to conditions: inhibition of MK2 biochemical activity; 90 min incubation at room temperature. As for the experimental part: Materials and Reagents for Measuring Inhibition of MK2 Biochemical Activity: • 1) Assay plate: 384 Well Low Volume Black Round Bottom Polystyrene NBS Microplate (Corning, Cat.No. 4514) • 2) MK2 kinase assay kit: Z' LYTE KINASE ASSAY KIT (ThermoFisher, Cat.No. pv3177) • 3) MAPKAPK2 Recombinant Human Protein (ThermoFisher, Cat.No. pv3317) • 4) DMSO (Vetec, Cat.No. V900090) • 5) DTT (Sigma, Cat.No. D0632)
MK2 Kinase Assay Procedure: • 1) Dispense 5 μl Kinase/Peptide Mixture to each wells of 384-well plate • 2) Add 2.5 μl 4× Test Compound to each well • 3) Add 2.5 μl 4× ATP Solution to each well • 4) After 90 minutes incubation at room temperature, add 5 μl Development Solution to each well • 5) After 60 minutes incubation at room temperature, add 5 μl stop Solution to each well • 6) Measure the Coumarin (Ex. 400 nm, Em. 445 nm) and Fluorescein (Ex. 400 nm, Em. 520 nm) emission signals on an Envision plate reader (PerkinElmer)
The IC50 is the midpoint of a concentration-inhibition curve. With `CC(C)(N)[C@H]1CC(=O)N(c2ccc3c(c2)Cn2cc(-c4ccc(C#N)cc4)cc2-c2nccn2-3)C1` [Example 52], the IC50 was under 50 nM. The value for `CN(C)CCC1CCN(c2ccc3c(c2)Cn2cc(-c4ccc(C#N)cc4)cc2-c2nccn2-3)C1=O` (centres unmarked) [Example 40, 4-(7-(3-(2-(Dimethylamino)ethyl)-2-oxopyrrolidin-1-yl)-9H-benzo[e]imidazo [2,1-c]pyrrolo[1,2-a][1,4]diazepin-12-yl)benzonitrile] was under 50 nM; that for `CN(C)[C@@H]1CCCN(C(=O)c2ccc3c(c2)Cn2cc(-c4ccc(C#N)cc4)cc2-c2nccn2-3)C1` [Example 124] was 50 to 100 nM; that for `N#Cc1ccc(-c2cc3n(c2)Cc2cc(N4CC(C5(CO)COC(=O)N5)CC4=O)ccc2-n2ccnc2-3)cc1` (centres unmarked) [Example 63, 4-(7-(4-(4-(Hydroxymethyl)-2-oxooxazolidin-4-yl)-2-oxopyrrolidin-1-yl)-9H-benzo[e]imidazo[2,1-c]pyrrolo[1,2-a][1,4]diazepin-12-yl)benzonitrile] was 50 to 100 nM.

For the compound `CN(CC1CNC1)C(=O)c1ccc2c(c1)Cn1cc(-c3ccc(C#N)cc3)cc1-c1nccn1-2` [Example 135], the IC50 was in the range of 100 to 200 nM. With `CN(C)[C@H]1CC[C@H](NC(=O)c2ccc3c(c2)Cn2cc(-c4ccc(C#N)cc4)cc2-c2nccn2-3)C1` [Example 122], the IC50 was in the range of 300 to 400 nM. The value for `Cc1nnc2n1-c1ccc(N3CCC(CN(C)C)C3=O)cc1Cn1cc(-c3ccc(C#N)cc3)cc1-2` (centres unmarked) [Example 84] was 50 to 100 nM. The value for `N#Cc1ccc(-c2cc3n(c2)Cc2cc(N4C[C@@H](C5(N)CC5)CC4=O)ccc2-n2ccnc2-3)cc1` (stereo in doubt) [Example 49, (S)-4-(7-(4-(1-aminocyclopropyl)-2-oxopyrrolidin-1-yl)-9H-benzo[e]imidazo [2,1-c]pyrrolo[1,2-a][1,4]diazepin-12-yl)benzonitrile] was under 50 nM; that for `CN1CCN2C(=O)N(c3ccc4c(c3)Cn3cc(-c5ccc(C#N)cc5)cc3-c3nccn3-4)C[C@H]2C1` [Example 60, (R)-4-(7-(7-Methyl-3-oxohexahydroimidazo[1,5-a]pyrazin-2(3H)-yl)-9H-benzo[e]imidazo[2,1-c]pyrrolo[1,2-a][1,4]diazepin-12-yl)benzonitrile] was under 50 nM.

For `CN[C@H]1CC[C@H](N(C)C(=O)c2ccc3c(c2)Cn2cc(-c4ccc(C#N)cc4)cc2-c2nccn2-3)C1` [Example 133], the IC50 fell in the range of 200 to 300 nM. As for `CC(C)(N)C1CC(=O)N(c2ccc3c(c2)Cn2cc(-c4ccc(C#N)cc4)cc2-c2nccn2-3)C1` (centres unmarked) [Example 51], the IC50 is under 50 nM. The value for `Cc1nnc2n1-c1ccc(N3C[C@@H](CN(C)C)OC3=O)cc1Cn1cc(-c3ccc(C#N)cc3)cc1-2` [Example 83] was 50 to 100 nM. The value for `CC1(CN2C(=O)CN(c3ccc4c(c3)Cn3cc(-c5ccc(C#N)cc5)cc3-c3nccn3-4)C2=O)CNC1` [Example 64, 4-(7-(3-((3-Methylazetidin-3-yl)methyl)-2,4-dioxoimidazolidin-1-yl)-9H-benzo[e]imidazo[2,1-c]pyrrolo[1,2-a][1,4]diazepin-12-yl)benzonitrile] was under 50 nM. The value for `CN(C)C[C@@H]1CCCN1C(=O)c1ccc2c(c1)Cn1cc(-c3ccc(C#N)cc3)cc1-c1nccn1-2` [Example 114] was 100 to 200 nM. `CN(C)C1CCC(C(=O)Nc2ccc3c(c2)Cn2cc(-c4ccc(C#N)cc4)cc2-c2nccn2-3)C1` (centres unmarked) [Example 78]: the IC50 was in the range of 50 to 100 nM.

With `CN(C)C[C@H]1CCCN1C(=O)c1ccc2c(c1)Cn1cc(-c3ccc(C#N)cc3)cc1-c1nccn1-2` [Example 113], the IC50 lay in the range of 200 to 300 nM.

In the case of `CN(C)CC1CCN(C(=O)c2ccc3c(c2)Cn2cc(-c4ccc(C#N)cc4)cc2-c2nccn2-3)C1` (centres unmarked) [Example 112, 4-(7-(3-((dimethylamino)methyl)pyrrolidine-1-carbonyl)-9H-benzo[e]imidazo [2,1-c]pyrrolo[1,2-a][1,4]diazepin-12-yl)benzonitrile], the half-maximal inhibitory concentration (IC50) was in the range of 50 to 100 nM. The value for `CC(C)(N)CNC(=O)c1ccc2c(c1)Cn1cc(-c3ccc(C#N)cc3)cc1-c1nccn1-2` [Example 111] was 200 to 300 nM; that for `N#Cc1ccc(-c2cc3n(c2)Cc2cc(N4C[C@@H](N)CC4=O)ccc2-n2ccnc2-3)cc1` [Example 32, (S)-4-(7-(4-Amino-2-oxopyrrolidin-1-yl)-9H-benzo[e]imidazo[2,1-c]pyrrolo [1,2-a][1,4]diazepin-12-yl)benzonitrile] was 50 to 100 nM. The value for `CN(C)[C@@H]1CC[C@@H](NC(=O)c2ccc3c(c2)Cn2cc(-c4ccc(C#N)cc4)cc2-c2nccn2-3)C1` [Example 123] was 300 to 400 nM; that for `CN(C)CC(C)(C)NC(=O)c1ccc2c(c1)Cn1cc(-c3ccc(C#N)cc3)cc1-c1nccn1-2` [Example 130] was 100 to 200 nM; that for `CN(CC(CN)CO)C(=O)c1ccc2c(c1)Cn1cc(-c3ccc(C#N)cc3)cc1-c1nccn1-2` (centres unmarked) [Example 136] was 50 to 100 nM. The value for `CN(C)CC1(C)CCN(c2ccc3c(c2)Cn2cc(-c4ccc(C#N)cc4)cc2-c2nccn2-3)C1=O` (centres unmarked) [Example 39, 4-(7-(3-((Dimethylamino)methyl)-3-methyl-2-oxopyrrolidin-1-yl)-9H-benzo[e]imidazo[2,1-c]pyrrolo[1,2-a][1,4]diazepin-12-yl)benzonitrile] was 100 to 200 nM; that for `N#Cc1ccc(-c2cc3n(c2)Cc2cc(N4CCN(C5CC5)CC4=O)ccc2-n2ccnc2-3)cc1` [Example 31, 4-(7-(4-Cyclopropyl-2-oxopiperazin-1-yl)-9H-benzo[e]imidazo[2,1-c]pyrrolo [1,2-a][1,4]diazepin-12-yl)benzonitrile] was 50 to 100 nM. Regarding `CN1CC(C)(CNC(=O)c2ccc3c(c2)Cn2cc(-c4ccc(C#N)cc4)cc2-c2nccn2-3)C1` [Example 121], the IC50 was in the range of 50 to 100 nM. Take `C[N+](C)(C)C[C@H]1CC(=O)N(c2ccc3c(c2)Cn2cc(-c4ccc(C#N)cc4)cc2-c2nccn2-3)C1` [Example 18, (S)-1-(1-(12-(4-cyanophenyl)-9H-benzo[e]imidazo[2,1-c]pyrrolo[1,2-a][1,4]diazepin-7-yl)-5-oxopyrrolidin-3-yl)-N,N,N-trimethylmethanaminium iodide]: the IC50 lay within 50 to 100 nM.

Consider `Cc1nnc2n1-c1ccc(N3CCC(CCN(C)C)C3=O)cc1Cn1cc(-c3ccc(C#N)cc3)cc1-2` (centres unmarked) [Example 81, 4-(7-(3-(2-(Dimethylamino)ethyl)-2-oxopyrrolidin-1-yl)-3-methyl-9H-benzo[e]pyrrolo[1,2-a][1,2,4]triazolo[3,4-c][1,4]diazepin-12-yl)benzonitrile], for which the IC50 is 50 to 100 nM. Turning to `CN(C)C1CCN(C(=O)c2ccc3c(c2)Cn2cc(-c4ccc(C#N)cc4)cc2-c2nccn2-3)C1` (centres unmarked) [Example 103], the IC50 is 200 to 300 nM. The value for `Cc1nnc2n1-c1ccc(N3CCN(CCN(C)C)C3=O)cc1Cn1cc(-c3ccc(C#N)cc3)cc1-2` [Example 85] was under 50 nM; that for `CN(C)C[C@@H]1[C@@H]2CN(c3ccc4c(c3)Cn3cc(-c5ccc(C#N)cc5)cc3-c3nccn3-4)C(=O)[C@H]12` [Example 45, 4-(7-((1R,5S,6R)-6-((Dimethylamino)methyl)-2-oxo-3-azabicyclo[3.1.0]hexan-3-yl)-9H-benzo[e]imidazo[2,1-c]pyrrolo[1,2-a][1,4]diazepin-12-yl)benzonitrile] was 50 to 100 nM.

As to `CN1CC[C@H](NC(=O)c2ccc3c(c2)Cn2cc(-c4ccc(C#N)cc4)cc2-c2nccn2-3)C1` [Example 102], the IC50 was under 50 nM. The value for `CC1(C2CC(=O)N(c3ccc4c(c3)Cn3cc(-c5ccc(C#N)cc5)cc3-c3nccn3-4)C2)CCN1` (centres unmarked) [Example 62, 4-(7-(4-(2-methylazetidin-2-yl)-2-oxopyrrolidin-1-yl)-9H-benzo[e]imidazo[2,1-c]pyrrolo[1,2-a][1,4]diazepin-12-yl)benzonitrile] was under 50 nM; that for `CN1CCN(C(=O)c2ccc3c(c2)Cn2cc(-c4ccc(C#N)cc4)cc2-c2nccn2-3)CC1` [Example 107] was 200 to 300 nM. The value for `CN1CC(C)(NC(=O)c2ccc3c(c2)Cn2cc(-c4ccc(C#N)cc4)cc2-c2nccn2-3)C1` [Example 129] was 100 to 200 nM. The value for `N#Cc1ccc(-c2cc3n(c2)Cc2cc(N4C[C@@H](CN)OC4=O)ccc2-n2ccnc2-3)cc1` [Example 2] was 50 to 100 nM; that for `CN(C)[C@H]1CCCN(C(=O)c2ccc3c(c2)Cn2cc(-c4ccc(C#N)cc4)cc2-c2nccn2-3)C1` [Example 125] was 50 to 100 nM. With `CN(C)C1CN(C(=O)c2ccc3c(c2)Cn2cc(-c4ccc(C#N)cc4)cc2-c2nccn2-3)C1` [Example 104], the IC50 is 200 to 300 nM. The value for `CN1CC[C@@H](N(C)C(=O)c2ccc3c(c2)Cn2cc(-c4ccc(C#N)cc4)cc2-c2nccn2-3)C1` [Example 134] was 200 to 300 nM; that for `CC(C)(N)C1CCN(c2ccc3c(c2)Cn2cc(-c4ccc(C#N)cc4)cc2-c2nccn2-3)C1=O` (centres unmarked) [Example 44, 4-(7-(3-(2-Aminopropan-2-yl)-2-oxopyrrolidin-1-yl)-9H-benzo[e]imidazo [2,1-c]pyrrolo[1,2-a][1,4]diazepin-12-yl)benzonitrile] was 50 to 100 nM.

For `CC(C)(N)C1CN(c2ccc3c(c2)Cn2cc(-c4ccc(C#N)cc4)cc2-c2nccn2-3)C(=O)O1` (centres unmarked) [Example 20], the IC50 is under 50 nM.

As to `Cc1nnc2n1CCN(C(=O)c1ccc3c(c1)Cn1cc(-c4ccc(C#N)cc4)cc1-c1nccn1-3)C2` [Example 108], the IC50 was in the range of 200 to 300 nM.
